According to patent US7659404B2, “Broad spectrum 2-(substituted-amino)-benzothiazole sulfonamide HIV protease inhibitors” (Tibotec Pharmaceuticals Ltd., priority 2001, dated 2010):

Assays:
wild type virus (IIIB) = test: HIV-AVE-MT4-MTT cellular assay, wild type virus (IIIB); type: cell-based; settings: MT4 cells, MTT; for EC50: Human immunodeficiency virus 1, IIIB, MT4, wild type virus (IIIB), read-out: HIV-AVE-MT4-MTT-IIIB-2-002 pEC50 (converted); for HIV-AVE-MT4-MTT-IIIB-2-002 pEC50: wild type virus (IIIB)
Method: (§1) HIV- or mock-infected MT4 cells were incubated for five days in the presence of various concentrations of the inhibitor. At the end of the incubation period, all HIV-infected cells have been killed by the replicating virus in the control cultures in the absence of any inhibitor. Cell viability is measured by measuring the concentration of MTT, a yellow, water soluble tetrazolium dye that is converted to a purple, water insoluble formazan in the mitochondria of living cells only. Upon solubilization of the resulting formazan crystals with isopropanol, the absorbance of the solution is monitored at 540 nm. The values correlate directly to the number of living cells remaining in the culture at the completion of the five day incubation. The inhibitory activity of the compound was monitored on the virus-infected cells and was expressed as EC50 and EC90. These values represent the amount of the compound required to protect 50% and 90%, respectively, of the cells from the cytopathogenic effect of the virus. The toxicity of the compound was measured on the mock-infected cells and was expressed as CC50, which represents the concentration of compound required to inhibit the growth of the cells by 50%. The selectivity index (SI) (ratio CC50/EC50) is an indication of the selectivity of the anti-HIV activity of the inhibitor.

virus strain F (R13025) = test: microbe, parasite or virus in culture; type: cell-based, HIV; settings: for EC50: Human immunodeficiency virus 1, MT4, read-out: HIV-AVE-MT4-MTT-R13025-2-002 pEC50, virus strain F (R13025), MT4 cells, MTT (converted); for HIV-AVE-MT4-MTT-R13025-2-002 pEC50: virus strain F (R13025), MT4 cells
Method: as §1, with “At the end of the incubation period, all HIV-infected cells have been killed by the replicating virus in the control cultures in the absence of any inhibitor.” left out
(§2) Because of the increasing emergence of drug resistant HIV strains, the present compounds were tested for their potency against clinically isolated HIV strains harboring several mutations.
(§3) As a measure of the broad spectrum activity of the present compounds, the fold resistance (FR) defined as FR=EC50(mutant strain)/EC50(HIV-1 strain LAI).

virus strain S (R13080) = test: microbe, parasite or virus in culture; type: cell-based, HIV; settings: for EC50: Human immunodeficiency virus 1, MT4, read-out: HIV-AVE-MT4-MTT-R13080-2-002 pEC50, virus strain S (R13080), MT4 cells, MTT (converted); for HIV-AVE-MT4-MTT-R13080-2-002 pEC50: virus strain S (R13080), MT4 cells
Method: as §1, with “At the end of the incubation period, all HIV-infected cells have been killed by the replicating virus in the control cultures in the absence of any inhibitor.” left out
as §2, §3

Row | SMILES | EC50 (wild type virus (IIIB)) [nM] | EC50 (virus strain F (R13025)) [nM] | EC50 (virus strain S (R13080)) [nM] | HIV-AVE-MT4-MTT-IIIB-2-002 pEC50 (wild type virus (IIIB)) | HIV-AVE-MT4-MTT-R13025-2-002 pEC50 (virus strain F (R13025)) | HIV-AVE-MT4-MTT-R13080-2-002 pEC50 (virus strain S (R13080))
1 | CC(C)CN(C[C@@H](O)[C@H](Cc1ccccc1)NC(=O)OCc1cncs1)S(=O)(=O)c1ccc2nc(NC(=O)c3ccno3)sc2c1 [Compound 172] | 42.7 | 245 | 813 | – | – | –
2 | CC(C)CN(C[C@@H](O)[C@H](Cc1ccccc1)NC(=O)OCc1cncs1)S(=O)(=O)c1ccc2nc(NC(=O)CN3CCNCC3)sc2c1 [Compound 157] | – | – | – | 7.54 | 7.5 | 6.85
3 | CC(C)CN(C[C@@H](O)[C@H](Cc1ccccc1)NC(=O)OCc1cncs1)S(=O)(=O)c1ccc2nc(NC(=O)CN3CCN(C)CC3)sc2c1 [Compound 159] | – | – | – | 8.1 | 7.78 | 7.46
4 | CC(C)CN(C[C@@H](O)[C@H](Cc1ccccc1)NC(=O)OCc1cncs1)S(=O)(=O)c1ccc2nc(N(C)C(=O)c3ccccn3)sc2c1 [Compound 154] | 5.5 | 38 | 372 | – | – | –
5 | CC(C)CN(C[C@@H](O)[C@H](Cc1ccccc1)NC(=O)OCc1cncs1)S(=O)(=O)c1ccc2nc(NC(=O)CN3CCN(C)CC3)sc2c1 [Compound 156] | 7.24 | – | 27.5 | – | 8.27 | –
6 | CC(C)CN(C[C@@H](O)[C@H](Cc1ccccc1)NC(=O)OCc1cncs1)S(=O)(=O)c1ccc2nc(NC(=O)c3ccccn3)sc2c1 [Compound 165] | 44.7 | 123 | 631 | – | – | –
7 | CC(=O)Nc1nc2ccc(S(=O)(=O)N(CC(C)C)C[C@@H](O)[C@H](Cc3ccccc3)NC(=O)COc3c(C)cc(C)cc3C)cc2s1 [Compound 105] | 46.8 | 56.2 | 479 | – | – | –
8 | CC(C)CN(C[C@@H](O)[C@H](Cc1ccccc1)NC(=O)OCc1cncs1)S(=O)(=O)c1ccc2nc(C(C)C(=O)CCCC(=O)O)sc2c1 (stereo partly drawn) [Compound 160] | 51.3 | 479 | 2450 | – | – | –
9 | CC(C)CN(C[C@@H](O)[C@H](Cc1ccccc1)NC(=O)OCc1cncs1)S(=O)(=O)c1ccc2nc(N(C)C(=O)CN(C)C)sc2c1 [Compound 176] | – | – | – | 8.39 | 7.2 | 6.65
10 | CC(C)CN(C[C@@H](O)[C@H](Cc1ccccc1)NC(=O)O[C@H]1CO[C@H]2OCC[C@H]21)S(=O)(=O)c1ccc2nc(N3CCNC3=O)sc2c1 [Compound 106] | 11 | 55 | 219 | – | – | –
11 | CC(C)CN(C[C@@H](O)[C@H](Cc1ccccc1)NC(=O)OCc1cncs1)S(=O)(=O)c1ccc2nc(N(C)C(=O)c3cc(ON)cc(ON)c3)sc2c1 [Compound 152] | 33.1 | 562 | 1740 | – | – | –
12 | CC(C)CN(C[C@@H](O)[C@H](Cc1ccccc1)NC(=O)OCc1cncs1)S(=O)(=O)c1ccc2nc(NC(=O)c3ccc[nH]3)sc2c1 [Compound 179] | 8.91 | 57.5 | 47.9 | – | – | –
13 | CC(C)CN(C[C@@H](O)[C@H](Cc1ccccc1)NC(=O)OC1CCSC1)S(=O)(=O)c1ccc2nc(NCCN(C)C)sc2c1 (stereo partly drawn) [Compound 146] | 9.55 | 302 | 1000 | – | – | –
14 | Cc1cccc(C)c1OCC(=O)N[C@@H](Cc1ccccc1)[C@H](O)CN(CC(C)C)S(=O)(=O)c1ccc2nc(NC(=O)c3ccncc3)sc2c1 [Compound 125] | 6.31 | 26.9 | 145 | – | – | –
15 | CC(C)CN(C[C@@H](O)[C@H](Cc1ccccc1)NC(=O)OCc1cncs1)S(=O)(=O)c1ccc2nc(NC(=O)c3cc(ON)cc(ON)c3)sc2c1 [Compound 162] | 20.4 | 46.8 | 158 | – | – | –
16 | Cc1cccc(C)c1OCC(=O)N[C@@H](Cc1ccccc1)[C@H](O)CN(CC(C)C)S(=O)(=O)c1ccc2nc(N3CCCC3C(=O)O)sc2c1 (stereo partly drawn) [Compound 139] | 2090 | 3090 | 10000 | – | – | –
17 | CC(C)CN(C[C@@H](O)[C@H](Cc1ccccc1)NC(=O)O[C@H]1CO[C@H]2OCC[C@H]21)S(=O)(=O)c1ccc2nc(N(C)CCCN3CCCC3)sc2c1 [Compound 108] | 24.5 | 288 | 813 | – | – | –
18 | Cc1cccc(C)c1OCC(=O)Nc1nc2ccc(S(=O)(=O)N(CC(C)C)C[C@@H](O)[C@H](Cc3ccccc3)NC(=O)COc3c(C)cccc3C)cc2s1 [Compound 145] | 12.6 | 39.8 | 145 | – | – | –
19 | CC(=O)NCCNc1nc2ccc(S(=O)(=O)N(CC(C)C)C[C@@H](O)[C@H](Cc3ccccc3)NC(=O)OC(C)(C)C)cc2s1 [Compound 121] | 20.9 | 2820 | 10000 | – | – | –
20 | Cc1cccc(C)c1OCC(=O)N[C@@H](Cc1ccccc1)[C@H](O)CN(CC(C)C)S(=O)(=O)c1ccc2nc(N(C)CCN3CCCC3)sc2c1 [Compound 115] | 759 | 6170 | 10000 | – | – | –
21 | CC(C)COC(=O)Nc1nc2ccc(S(=O)(=O)N(CC(C)C)C[C@@H](O)[C@H](Cc3ccccc3)NC(=O)OCc3cncs3)cc2s1 [Compound 171] | 51.3 | 186 | 851 | – | – | –
22 | CC(C)CN(C[C@@H](O)[C@H](Cc1ccccc1)NC(=O)C(NC(=O)CNCc1cccc(F)c1)C(C)(C)C)S(=O)(=O)c1ccc2nc(NCCCN(C)C)sc2c1 (stereo partly drawn) [Compound 188] | 200 | 93.3 | 132 | – | – | –
23 | CC(C)CN(C[C@@H](O)[C@H](Cc1ccccc1)NC(=O)OC(C)(C)C)S(=O)(=O)c1ccc2nc(NCCN3CCCC3)sc2c1 [Compound 126] | 49 | 3160 | 10000 | – | – | –
24 | CC(C)CN(C[C@@H](O)[C@H](Cc1ccccc1)NC(=O)OCc1cncs1)S(=O)(=O)c1ccc2nc(N(C)C(=O)CN3CCOCC3)sc2c1 [Compound 174] | – | – | – | 8.04 | 6.88 | 6.18
25 | CC(C)CN(C[C@@H](O)[C@H](Cc1ccccc1)NC(=O)O[C@H]1CO[C@H]2OCC[C@H]21)S(=O)(=O)c1ccc2nc(NCCN)sc2c1 [Compound 185] | 45.7 | 33.1 | 34.7 | – | – | –
26 | CC(C)CN(C[C@@H](O)[C@H](Cc1ccccc1)NC(=O)OCc1cncs1)S(=O)(=O)c1ccc2nc(NC(=O)C3CCC(=O)N3)sc2c1 (stereo partly drawn) [Compound 161] | 9.12 | 17.4 | 33.9 | – | – | –
27 | CC(C)CN(C[C@@H](O)[C@H](Cc1ccccc1)NC(=O)OCc1cncs1)S(=O)(=O)c1ccc2nc(N(C)C(=O)CN(C)CCCN3CCCC3)sc2c1 [Compound 175] | – | – | – | 7.3 | 6.03 | 5.5
28 | Cc1cccc(C)c1OCC(=O)N[C@@H](Cc1ccccc1)[C@H](O)CN(CC(C)C)S(=O)(=O)c1ccc2nc(NC(=O)C3CC(=O)N(Cc4ccco4)C3)sc2c1 (stereo partly drawn) [Compound 114] | 20.4 | 33.9 | 141 | – | – | –
